Laboratory results taken from patent US11008314B2, “Compounds and methods for modulating interleukin-2-inducible t-cell kinase” (CORVUS PHARMACEUTICALS, INC., priority 2016, dated 2021).

How the values were obtained:
Format in all cases: biochemical
JAK3 = JAK3 (Homo sapiens (Human), UniProt P52333); experiment: IC50 against JAK3
TXK = TXK (Homo sapiens (Human), UniProt P42681); experiment: IC50 against TXK; conditions: for TXK/ITK: ratio of TXK IC50 to ITK IC50
ITK = ITK (Homo sapiens (Human), UniProt Q08881); experiment: IC50 against ITK
BTK = BTK (Homo sapiens (Human), UniProt Q06187); experiment: IC50 against BTK
Chain of BTK (Q06187 whole entry, species assumed): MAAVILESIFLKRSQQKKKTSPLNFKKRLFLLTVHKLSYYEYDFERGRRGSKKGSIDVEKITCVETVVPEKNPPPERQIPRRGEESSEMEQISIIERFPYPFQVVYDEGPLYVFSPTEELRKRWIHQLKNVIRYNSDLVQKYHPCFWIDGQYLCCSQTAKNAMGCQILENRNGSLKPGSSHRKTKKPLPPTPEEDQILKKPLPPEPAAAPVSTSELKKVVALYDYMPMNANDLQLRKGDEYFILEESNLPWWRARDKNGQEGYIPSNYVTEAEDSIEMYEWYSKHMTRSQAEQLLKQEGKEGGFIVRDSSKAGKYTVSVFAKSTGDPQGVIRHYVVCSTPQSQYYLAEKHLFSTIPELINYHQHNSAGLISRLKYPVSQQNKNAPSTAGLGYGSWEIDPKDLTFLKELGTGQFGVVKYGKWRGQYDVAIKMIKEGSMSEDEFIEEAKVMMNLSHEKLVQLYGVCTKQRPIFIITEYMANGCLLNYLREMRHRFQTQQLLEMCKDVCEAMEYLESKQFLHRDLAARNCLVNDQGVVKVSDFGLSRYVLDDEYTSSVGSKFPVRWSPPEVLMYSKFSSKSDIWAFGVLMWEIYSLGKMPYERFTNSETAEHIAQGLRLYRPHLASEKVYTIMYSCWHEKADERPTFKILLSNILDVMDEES

Chain of JAK3 (P52333 whole entry, species assumed): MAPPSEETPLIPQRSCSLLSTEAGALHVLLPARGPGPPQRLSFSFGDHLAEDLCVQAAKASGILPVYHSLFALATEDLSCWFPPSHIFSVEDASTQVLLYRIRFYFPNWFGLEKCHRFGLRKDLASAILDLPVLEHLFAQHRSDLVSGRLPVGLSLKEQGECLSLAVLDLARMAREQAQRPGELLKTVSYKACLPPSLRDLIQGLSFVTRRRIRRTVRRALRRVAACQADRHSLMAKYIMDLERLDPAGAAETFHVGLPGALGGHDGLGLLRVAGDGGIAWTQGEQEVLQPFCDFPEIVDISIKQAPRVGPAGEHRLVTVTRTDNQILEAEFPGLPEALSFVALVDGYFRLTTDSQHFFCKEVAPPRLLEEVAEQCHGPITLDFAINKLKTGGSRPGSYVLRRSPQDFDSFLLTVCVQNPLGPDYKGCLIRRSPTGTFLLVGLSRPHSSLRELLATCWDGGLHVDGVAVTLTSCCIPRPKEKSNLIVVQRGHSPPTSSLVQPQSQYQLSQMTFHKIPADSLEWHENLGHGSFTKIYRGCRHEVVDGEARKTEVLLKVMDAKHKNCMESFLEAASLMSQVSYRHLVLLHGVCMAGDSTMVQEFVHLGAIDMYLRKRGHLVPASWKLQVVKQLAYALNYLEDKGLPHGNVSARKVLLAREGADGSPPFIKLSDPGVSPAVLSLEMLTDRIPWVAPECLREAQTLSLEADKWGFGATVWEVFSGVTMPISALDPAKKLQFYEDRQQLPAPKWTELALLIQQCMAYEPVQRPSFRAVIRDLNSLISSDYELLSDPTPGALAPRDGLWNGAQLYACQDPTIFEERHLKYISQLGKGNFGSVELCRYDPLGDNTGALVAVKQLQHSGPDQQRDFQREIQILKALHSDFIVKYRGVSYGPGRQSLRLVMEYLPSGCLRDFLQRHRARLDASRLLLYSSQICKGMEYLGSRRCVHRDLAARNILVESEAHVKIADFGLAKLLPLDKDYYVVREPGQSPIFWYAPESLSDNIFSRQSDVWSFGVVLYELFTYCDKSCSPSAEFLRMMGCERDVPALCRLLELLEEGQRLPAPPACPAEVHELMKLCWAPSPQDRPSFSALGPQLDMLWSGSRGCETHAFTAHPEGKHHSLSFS
Chain of ITK (Q08881 whole entry): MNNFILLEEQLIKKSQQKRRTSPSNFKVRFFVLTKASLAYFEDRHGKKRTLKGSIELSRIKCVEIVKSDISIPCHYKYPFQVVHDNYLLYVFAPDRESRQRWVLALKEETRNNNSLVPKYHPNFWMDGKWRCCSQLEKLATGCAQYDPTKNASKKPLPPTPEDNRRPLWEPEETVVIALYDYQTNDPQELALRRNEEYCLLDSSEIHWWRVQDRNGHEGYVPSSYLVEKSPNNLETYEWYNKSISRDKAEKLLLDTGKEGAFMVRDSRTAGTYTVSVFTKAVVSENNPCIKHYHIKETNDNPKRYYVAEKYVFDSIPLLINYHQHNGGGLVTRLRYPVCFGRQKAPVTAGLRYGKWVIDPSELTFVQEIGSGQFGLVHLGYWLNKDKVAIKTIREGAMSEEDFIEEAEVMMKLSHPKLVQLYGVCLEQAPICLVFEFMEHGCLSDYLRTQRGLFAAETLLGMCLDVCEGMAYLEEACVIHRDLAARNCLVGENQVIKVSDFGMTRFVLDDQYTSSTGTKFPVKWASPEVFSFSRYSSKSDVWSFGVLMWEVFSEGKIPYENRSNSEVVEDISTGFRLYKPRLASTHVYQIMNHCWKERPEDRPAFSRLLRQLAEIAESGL
Chain of TXK (P42681 whole entry, species assumed): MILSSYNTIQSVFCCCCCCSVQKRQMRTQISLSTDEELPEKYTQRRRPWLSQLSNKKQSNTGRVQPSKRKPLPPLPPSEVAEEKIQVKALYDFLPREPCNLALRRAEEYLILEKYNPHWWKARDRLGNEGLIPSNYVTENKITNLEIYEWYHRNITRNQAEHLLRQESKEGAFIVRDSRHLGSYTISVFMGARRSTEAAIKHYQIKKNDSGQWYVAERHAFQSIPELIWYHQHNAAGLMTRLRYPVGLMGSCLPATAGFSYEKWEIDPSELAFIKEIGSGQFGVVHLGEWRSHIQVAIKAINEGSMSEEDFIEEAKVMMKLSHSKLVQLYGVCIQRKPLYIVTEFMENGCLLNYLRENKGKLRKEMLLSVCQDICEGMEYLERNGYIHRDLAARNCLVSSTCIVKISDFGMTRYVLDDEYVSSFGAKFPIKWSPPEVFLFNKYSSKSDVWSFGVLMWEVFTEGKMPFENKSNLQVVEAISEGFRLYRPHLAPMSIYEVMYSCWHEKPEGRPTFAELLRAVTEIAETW

SMILES	IC50 (JAK3) [nM]	IC50 (TXK) [nM]	TXK/ITK (TXK)	IC50 (ITK) [nM]	IC50 (BTK) [nM]
C=CC(=O)N1CCCN(C(=O)c2cc(Cc3cnc(NC(=O)C4CC4)s3)c(C)cc2C)C[C@H]1C [Compound 127]	≥ 10000	100 to 1000	7.6	10 to 100	100 to 1000
C=CC(=O)N1CCCN(C(=O)c2cc(Cc3cnc(NC(=O)C4CC4)s3)c(C)cc2OC)C[C@H]1C [Compound 128]	≥ 10000	100 to 1000	12.8	10 to 100	100 to 1000
C=CC(=O)N1CCN(C(=O)c2cc(Sc3cnc(NC(=O)c4cccc(CN(C)C)c4)s3)c(C)cc2C)C[C@H]1CC [Compound 129]	100 to 1000	10 to 100	46.0	< 10	10 to 100
C=CC(=O)N1CCN(C(=O)c2cc(Sc3cnc(NC(=O)c4ccsc4)s3)c(C)cc2C)C[C@H]1CC [Compound 130]	100 to 1000	10 to 100	7.0	< 10	100 to 1000
C=CC(=O)N1CCN(C(=O)c2cc(Sc3cnc(NC(=O)c4cnsc4)s3)c(C)cc2C)C[C@H]1CC [Compound 131]	100 to 1000	10 to 100	11.0	< 10	100 to 1000
C=CC(=O)N1CCN(C(=O)c2cc(Sc3cnc(NC(=O)c4ccn(C)c4)s3)c(C)cc2OC)C[C@H]1CC [Compound 132]	100 to 1000	10 to 100		< 10	100 to 1000
C=CC(=O)N1CCN(C(=O)c2cc(Sc3cnc(Nc4ccccn4)s3)c(C)cc2C)CC1 [Compound 133]	10 to 100	< 10	4.6	< 10	10 to 100
C=CC(=O)N1CCN(C(=O)c2cc(Sc3cnc(Nc4ccc(CN(C)C)cn4)s3)c(C)cc2OC)CC1 [Compound 134]	10 to 100	< 10		< 10	< 10
C=CC(=O)N1CCCN(C(=O)c2cc(Sc3cnc(Nc4ncccc4C)s3)c(C)cc2OC)C[C@H]1C [Compound 136]	100 to 1000	10 to 100	42	< 10	10 to 100
C=CC(=O)N1CCN(C(=O)c2cc(C(C)c3cnc(Nc4ccccn4)s3)c(C)cc2OC)CC1 (stereo not shown) [Compound 137]	100 to 1000	< 10	0.93	< 10	< 10
C=CC(=O)N1CCN(C(=O)c2cc(Sc3cnc(Nc4ncc(C)cc4C)s3)c(C)cc2C)CC1 [Compound 138]	100 to 1000	10 to 100	3.29	10 to 100	100 to 1000
C=CC(=O)N1CCN(C(=O)c2cc(Sc3cnc(Nc4ncc(C)nc4C)s3)c(C)cc2C)CC1 [Compound 139]	100 to 1000	10 to 100	4.65	10 to 100	100 to 1000
C=CC(=O)N1CCN(C(=O)c2cc(C(C)c3cnc(NC(=O)C4CC4)s3)c(C)cc2OC)CC1 (stereo not shown) [Compound 140]	1000 to 10000	10 to 100	2.66	< 10	10 to 100
C=CC(=O)N1CCN(C(=O)c2cc(Sc3cnc(NC(=O)c4ccsc4)s3)c(C)cc2OC)CC1(C)C [Compound 141, N-(5-((5-(4-acryloyl-3,3-dimethylpiperazine-1-carbonyl)-4-methoxy-2-methylphenyl)thio)thiazol-2-yl)thiophene-3-carboxamide]	100 to 1000	10 to 100	14.70	< 10	10 to 100
C=CC(=O)N1CCN(C(=O)c2cc(Sc3cnc(NC(=O)c4ccsc4)s3)c(C)cc2OC)C(C)(C)C1 [Compound 142, N-(5-((5-(4-acryloyl-2,2-dimethylpiperazine-1-carbonyl)-4-methoxy-2-methylphenyl)thio)thiazol-2-yl)thiophene-3-carboxamide]	< 10	< 10	1.00	< 10	< 10
